Like-named read-outs stand apart in the source and are kept apart here.
Key:
[1] = target: T1, human recombinant adrenergic α2A receptor (Homo sapiens, UniProt P08913); test: Adrenergic α2A radioligand binding ([3H]MK-912); set-up: Inhibition of ligand binding, Adren. alpha2A: concentration or dose not given beside the values; conditions: for inhibition at 1 µM: compounds screened at 1 μM, read-out: Inhibition of ligand binding, Adren. alpha2A (percent inhibition of specific binding); for Inhibition of ligand binding, Adren. alpha2A: percent inhibition of specific binding
T1 construct: expressed in transfected cells; host or cells: insect Sf9 cells
T1 sequence (P08913 1-465): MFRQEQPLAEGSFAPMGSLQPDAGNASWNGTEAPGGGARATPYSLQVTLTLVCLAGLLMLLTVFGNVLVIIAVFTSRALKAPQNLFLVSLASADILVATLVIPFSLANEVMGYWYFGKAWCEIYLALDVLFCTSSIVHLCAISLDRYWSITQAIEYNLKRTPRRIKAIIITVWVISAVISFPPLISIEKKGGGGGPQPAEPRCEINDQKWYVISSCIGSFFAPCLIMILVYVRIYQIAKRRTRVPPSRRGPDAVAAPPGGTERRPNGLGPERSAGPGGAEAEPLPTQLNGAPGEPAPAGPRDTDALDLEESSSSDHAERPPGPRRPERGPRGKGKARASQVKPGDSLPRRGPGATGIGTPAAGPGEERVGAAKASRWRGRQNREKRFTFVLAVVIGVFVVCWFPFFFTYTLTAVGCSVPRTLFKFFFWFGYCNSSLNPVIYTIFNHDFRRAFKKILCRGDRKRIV
Summary of the method: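 Membranes from Sf9 cells expressing the receptor were incubated with 1 nM [3H]MK-912 for 60 minutes at 25° C in 50 mM Tris-HCl pH 7.4, 12.5 mM MgCl2, 2 mM EDTA. 10 μM WB-4101 defined non-specific binding. Values are percent inhibition of specific bound radioactivity after filtration.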

[2] = target: T2, human recombinant serotonin (5-Hydroxytryptamine) 5-HT2A receptor (Homo sapiens, UniProt P28223); test: Serotonin 5-HT2A radioligand binding ([3H]Ketanserin); conditions: for inhibition at 1 µM: read-out: Inhibition of ligand binding, Ser. 5-HT2A (percent inhibition of specific binding); for Inhibition of ligand binding, Ser. 5-HT2A: percent inhibition of specific binding
T2 construct: expressed in transfected cells; host or cells: CHO-K1 cells
T2 sequence (P28223 whole entry): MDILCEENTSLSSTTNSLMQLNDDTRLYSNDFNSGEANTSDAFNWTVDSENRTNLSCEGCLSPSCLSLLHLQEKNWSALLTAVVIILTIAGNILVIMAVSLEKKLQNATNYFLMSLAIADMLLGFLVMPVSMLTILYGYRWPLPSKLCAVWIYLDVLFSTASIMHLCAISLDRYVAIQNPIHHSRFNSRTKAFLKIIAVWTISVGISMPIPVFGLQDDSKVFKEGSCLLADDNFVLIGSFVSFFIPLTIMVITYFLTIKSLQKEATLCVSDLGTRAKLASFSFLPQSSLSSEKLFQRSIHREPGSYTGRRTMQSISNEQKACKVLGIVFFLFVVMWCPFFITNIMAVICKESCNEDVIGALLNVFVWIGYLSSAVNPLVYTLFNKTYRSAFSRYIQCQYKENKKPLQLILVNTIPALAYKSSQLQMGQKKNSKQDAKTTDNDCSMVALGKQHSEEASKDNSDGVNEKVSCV
Procedure: Compounds of the invention were incubated with 0.5 nM [^3H]Ketanserin for 60 minutes at 25° C. Non-specific binding was estimated in the presence of 1 μM Mianserin. Receptor proteins were filtered and washed, the filters were then counted to determine [^3H]Ketanserin specifically bound. […] Biochemical assay results are presented as the percent inhibition of specific binding in Table 6.

[3] = target: T3, human recombinant histamine H2 receptor (Homo sapiens, UniProt P25021); test: Histamine H2 radioligand binding ([125I]Aminopotentidine); conditions: for inhibition at 0.1 µM: 0.1 μM compound
T3 construct: expressed in transfected cells; host or cells: CHO-K1 cells
T3 sequence (P25021 whole entry): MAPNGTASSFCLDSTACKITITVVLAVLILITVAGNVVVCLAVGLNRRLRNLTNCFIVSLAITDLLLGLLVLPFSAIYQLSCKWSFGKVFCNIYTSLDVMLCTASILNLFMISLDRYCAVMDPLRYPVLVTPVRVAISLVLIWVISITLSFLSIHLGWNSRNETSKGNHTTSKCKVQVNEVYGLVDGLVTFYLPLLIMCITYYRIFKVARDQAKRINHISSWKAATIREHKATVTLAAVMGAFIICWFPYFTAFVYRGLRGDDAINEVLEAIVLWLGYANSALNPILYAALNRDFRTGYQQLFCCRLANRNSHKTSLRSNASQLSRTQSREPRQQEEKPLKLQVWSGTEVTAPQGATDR
Summary of the method: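 This radioligand binding assay measured displacement of [125I]Aminopotentidine from recombinant human histamine H2 receptors. Compounds were dissolved in 1% DMSO vehicle. Specific binding was calculated by subtracting non-specific binding, defined using 3 μM Tiotidine, and activity was reported as percentage inhibition of that specific binding.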

[4] = target: T4, human recombinant histamine H1 receptor (Homo sapiens, UniProt P35367); test: Histamine H1 radioligand binding ([3H]Pyrilamine); conditions: for inhibition at 0.01 µM: 10 nM (0.01 μM) compound; for inhibition at 0.1 µM: 0.1 μM compound
T4 construct: expressed in transfected cells; host or cells: CHO cells
T4 sequence (P35367 whole entry): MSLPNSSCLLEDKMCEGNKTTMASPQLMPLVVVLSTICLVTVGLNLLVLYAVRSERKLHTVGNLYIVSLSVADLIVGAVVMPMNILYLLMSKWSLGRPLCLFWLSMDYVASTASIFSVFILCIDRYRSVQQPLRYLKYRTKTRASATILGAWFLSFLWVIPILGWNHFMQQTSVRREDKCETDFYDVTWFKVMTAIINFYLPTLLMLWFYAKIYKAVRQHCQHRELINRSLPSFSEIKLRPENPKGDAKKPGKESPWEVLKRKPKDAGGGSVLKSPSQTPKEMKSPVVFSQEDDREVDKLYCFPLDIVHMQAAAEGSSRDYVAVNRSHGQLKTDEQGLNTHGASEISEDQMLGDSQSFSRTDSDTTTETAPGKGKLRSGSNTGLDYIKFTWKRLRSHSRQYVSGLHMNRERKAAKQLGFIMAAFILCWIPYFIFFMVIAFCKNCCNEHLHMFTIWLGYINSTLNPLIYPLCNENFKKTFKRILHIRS
Summary of the method: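 CHO-expressed receptor in modified Tris-HCl buffer (50 mM, pH 7.4; 2 mM MgCl2, 100 mM NaCl, 250 mM sucrose); bound ligand measured after filtration and washing.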

[5] = target: T5, human recombinant dopamine D2L receptor (Homo sapiens, UniProt P14416); test: Dopamine D2L radioligand binding ([3H]Spiperone); conditions: for inhibition at 1 µM: compounds screened at 1 μM, read-out: Inhibition of ligand binding, Dop. D2L (percent inhibition of specific binding); for Inhibition of ligand binding, Dop. D2L: percent inhibition of specific binding
T5 construct: expressed in transfected cells; host or cells: CHO cells
T5 sequence (P14416 whole entry): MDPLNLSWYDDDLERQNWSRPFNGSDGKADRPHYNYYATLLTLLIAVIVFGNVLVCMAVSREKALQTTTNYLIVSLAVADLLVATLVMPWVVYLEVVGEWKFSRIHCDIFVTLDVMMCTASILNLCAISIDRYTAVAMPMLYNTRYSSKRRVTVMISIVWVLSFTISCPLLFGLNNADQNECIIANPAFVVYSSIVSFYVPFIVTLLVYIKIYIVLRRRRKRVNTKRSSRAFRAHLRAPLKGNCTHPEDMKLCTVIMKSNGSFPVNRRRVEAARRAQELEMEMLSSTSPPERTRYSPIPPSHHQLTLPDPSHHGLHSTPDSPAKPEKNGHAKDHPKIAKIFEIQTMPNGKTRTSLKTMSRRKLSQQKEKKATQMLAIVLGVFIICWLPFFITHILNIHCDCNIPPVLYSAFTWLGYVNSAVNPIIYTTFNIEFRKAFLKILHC
Procedure: Non-specific binding was estimated in the presence of 10 μM Haloperidol. Receptor proteins were filtered and washed, the filters were then counted to determine [^3H]Spiperone specifically bound. […] Biochemical assay results are presented as the percent inhibition of specific binding in Table 6.

[6] = compounds screened at 1 μM, read-out: Inhibition of ligand binding, Hist. H2 (percent inhibition of specific binding)
[7] = compounds screened at 1 μM, read-out: Inhibition of ligand binding, Hist. H1 (percent inhibition of specific binding)
[8] = percent inhibition of specific binding, screened at 1 μM, read-out: Inhibition of ligand binding, Hist. H2
[9] = percent inhibition of specific binding, screened at 1 μM, read-out: Inhibition of ligand binding, Hist. H1
[10] = 1 μM compound, 0.1 nM [125I]Aminopotentidine, read-out: Histamine Binding H2, percent inhibition of specific binding
[11] = 1 μM compound, […] [3H]Pyrilamine, read-out: Histamine Binding H1, percent inhibition of specific binding
[12] = 0.1 nM [125I]Aminopotentidine, read-out: Histamine Binding H2, percent inhibition of specific binding
[13] = […] [3H]Pyrilamine, read-out: Histamine Binding H1, percent inhibition of specific binding

Row | Structure (SMILES) | inhibition at 1 µM [1] | inhibition at 1 µM [2] | inhibition at 1 µM [3, 6] | inhibition at 1 µM [4, 7] | inhibition at 1 µM [5] | Inhibition of ligand binding, Adren. alpha2A [1] | Inhibition of ligand binding, Ser. 5-HT2A [2] | inhibition at 1 µM [3, 8] | inhibition at 1 µM [4, 9] | Inhibition of ligand binding, Dop. D2L [5] | other results
1 | COc1ccc2c(c1)c1c(n2CCc2nc(-c3ccccc3)cs2)CCN(C)C1 [Compound C1-6] | 55% | 84% | 21% | 104% | 29% |  |  |  |  |  | 
2 | CN1CCc2c(c3ccncc3n2CCc2ccccn2)C1 [Compound 481, 7-aza-2-methyl-5-(2-(pyridin-2-yl)ethyl)-2,3,4,5-tetrahydro-1H-pyrido[4,3-b]indole] | 3% | 27% | -17% | 4% | 16% |  |  |  |  |  | 
3 | CCOC(=O)c1ccc(CCn2c3c(c4cc(C)ccc42)CN(C)CC3)cn1 [Compound 275, ethyl 5-(2-(1,2,3,4-tetrahydro-2,8-dimethylpyrido[4,3-b]indol-5-yl)ethyl)pyridine-2-carboxylate] |  |  |  |  |  | 29% | 39% | 20% | 92% | 4% | 
4 | COc1ccc(CCn2c3c(c4cc(C)ccc42)CN(C)CC3)cc1 [Compound 247] |  |  |  |  |  | 99% |  | 97% | 100% | 87% | inhibition at 0.001 µM ([2]; read-out: Inhibition of ligand binding, Ser. 5-HT2A): 22%; inhibition at 1 µM [3, 10]: 97%; inhibition at 1 µM [4, 11]: 100%
5 | CCOc1ccc(CCn2c3c(c4cc(C)ccc42)CN(C)CC3)cc1 [Compound 334, 5-[2-(4-Ethoxy-phenyl)-ethyl]-2,8-dimethyl-2,3,4,5-tetrahydro-1H-pyrido[4,3-b]indole] |  |  |  |  |  | 101% | 101% | 91% | 99% | 76% | 
6 | Cc1ccc2c(c1)c1c(n2CCc2noc(-c3ccccc3)n2)CCN(C)C1 [Compound C4-4] | 96% | 100% | 68% | 101% | 46% |  |  |  |  |  | 
7 | CN1CCc2c(c3cc(Cl)ccc3n2CCC(=O)N2CCOCC2)C1 [Compound 328, 3-(8-chloro-1,2,3,4-tetrahydro-2-methylpyrido[4,3-b]indol-5-yl)-1-morpholinopropan-1-one] |  |  |  |  |  | 45% | 46% | 4% | 56% | 6% | 
8 | CN1CCc2c(c3ccncc3n2CCc2ccncc2)C1 [Compound 483, 7-aza-2-methyl-5-(2-(pyridin-4-yl)ethyl)-2,3,4,5-tetrahydro-1H-pyrido[4,3-b]indole] | -7% | 2% | -7% | -5% | 0% |  |  |  |  |  | 
9 | CN1CCc2c(c3cc(Cl)ccc3n2CCc2ccccc2)C1 [Compound 36, 8-chloro-2,3,4,5-tetrahydro-2-methyl-5-phenethyl-1H-pyrido[4,3-b]indole] |  |  |  |  |  | 97% | 98% | 92% | 99% | 92% | inhibition at 0.1 µM [3, 12]: 41%; inhibition at 1 µM [3, 10]: 92%; inhibition at 0.01 µM [4, 13]: 48%; inhibition at 0.1 µM [4, 13]: 91%; inhibition at 1 µM [4, 11]: 99%
10 | CN1CCc2c(c3ncccc3n2CCc2ccccn2)C1 [Compound 484, 9-aza-2-methyl-5-(2-(pyridin-2-yl)ethyl)-2,3,4,5-tetrahydro-1H-pyrido[4,3-b]indole] | 28% | 39% | -4% | 7% | 15% |  |  |  |  |  | 
11 | Cc1ccc(CCn2c3c(c4cc(C)ccc42)CN(C)CC3)cc1 [Compound 25, 2,3,4,5-tetrahydro-2,8-dimethyl-5-(4-methylphenethyl)-1H-pyrido[4,3-b]indole] |  |  |  |  |  | 99% | 93% | 96% | 97% | 94% | inhibition at 0.1 µM [3, 12]: 54%; inhibition at 0.3 µM ([3]; 0.3 μM compound, 0.1 nM [125I]Aminopotentidine, read-out: Histamine Binding H2, percent inhibition of specific binding): 75%; inhibition at 1 µM [3, 10]: 96%; inhibition at 0.03 µM ([4]; 0.03 μM compound, […] [3H]Pyrilamine, read-out: Histamine Binding H1, percent inhibition of specific binding): 71%; inhibition at 0.1 µM [4, 13]: 89%; inhibition at 1 µM [4, 11]: 97%
12 | CN1CCc2c(c3cc(F)ccc3n2CCc2nc(-c3ccccc3)cs2)C1 [Compound C1-7] | 88% | 96% | 55% | 99% | 25% |  |  |  |  |  | 
13 | CN1CCc2c(c3cc(Cl)ccc3n2CC(=O)N2CC[S+]([O-])CC2)C1 [Compound 296, 2-(8-Chloro-2-methyl-1,2,3,4-tetrahydro-pyrido[4,3-b]indol-5-yl)-1-(1-oxo-1l4-thiomorpholin-4-yl)-ethanone] |  |  |  |  |  | 1% | 11% | -4% | 36% | 3% | 
14 | Cc1ccc2c(c1)c1c(n2CCCc2ccc(C(F)(F)F)nc2)CCN(C)C1 [Compound 331, 5-(3-(6-(trifluoromethyl)pyridin-3-yl)propyl)-2,3,4,5-tetrahydro-2,8-dimethyl-1H-pyrido[4,3-b]indole] |  |  |  |  |  | 50% | 93% | 73% | 102% | 20% | 
15 | Cc1ccc2c(c1)c1c(n2CCc2ccc(F)cc2)CCN(C)C1 [Compound 33, 5-(4-fluorophenethyl)-2,3,4,5-tetrahydro-2,8-dimethyl-1H-pyrido[4,3-b]indole] |  |  |  |  |  | 98% | 97% | 91% | 98% | 88% | inhibition at 0.1 µM [3, 12]: 41%; inhibition at 1 µM [3, 10]: 91%; inhibition at 0.01 µM [4, 13]: 46%; inhibition at 0.1 µM [4, 13]: 89%; inhibition at 1 µM [4, 11]: 98%
16 | CN1CCc2c(c3cc(I)ccc3n2CC(=O)N2CCCCC2)C1 [Compound 486, 2-(1,2,3,4-tetrahydro-8-iodo-2-methylpyrido[4,3-b]indol-5-yl)-1-(piperidin-1-yl)ethanone] | 4% | 19% | 11% | 28% | 0% |  |  |  |  |  | 

— US9096591B2, “Tetracyclic compounds” (Medivation Technologies, Inc., priority 2007, dated 2015)
